Data as given in US7649010B2, “Carvedilol hydrobromide” (SmithKline Beechman Cork Limited, priority 2002, dated 2010).
In brackets after ≈: the same amount, converted by molar mass. Where a name gives a salt, the structure may show the parent alone.

Legend:
[1] = solubility of the in-situ salt in acidic medium (simulated gastric fluid); assay type: physicochemical; settings: generated in-situ in an acidic medium, such as simulated gastric fluid
[2] = pKa of the α-hydroxyl secondary amine functional group; assay type: physicochemical
Text: (§1) At lower pH values (i.e., at a pH of 1 to 4 in various buffer systems), solubility of carvedilol is limited by the solubility of its protonated form or its corresponding salt formed in-situ.

physchem = settings: thermodynamic from solid
Text: as §1

[3] = aqueous solubility of the crystalline salt compared with free base and other salts; assay type: physicochemical
α-adrenergic = settings: cited from earlier work
β-adrenoreceptor = settings: cited from earlier work

## COc1ccccc1OCCNCC(O)COc1cccc2[nH]c3ccccc3c12.Cl (stereo not shown) [hydrochloride salt of carvedilol]
[1]
  solubility relative to the protonated form of carvedilol: less soluble

## COc1ccccc1OCCNCC(O)COc1cccc2[nH]c3ccccc3c12 (racemic) [Carvedilol]
[2]
  pKa: 7.8
physchem; pH 5, aqueous buffer
  solubility: ~100 µg/mL (≈ 246 µM)
physchem; pH 7, aqueous buffer
  solubility: ~23 µg/mL (≈ 56.6 µM)
physchem; pH 9, aqueous buffer
  solubility: < 1 µg/mL

## COc1ccccc1OCCNCC(O)COc1cccc2[nH]c3ccccc3c12 (stereo not shown) [carvedilol hydrobromide]
[3]; novel crystalline form
  solubility compared to the free base of carvedilol: much higher solubility
[3]; pure crystalline solid
  aqueous solubility relative to free base or other crystalline salts (hydrochloride): much higher aqueous solubility

## COc1ccccc1OCCNC[C@@H](O)COc1cccc2[nH]c3ccccc3c12 (single isomer, unassigned) [R(+) enantiomer]
α-adrenergic
  α-adrenergic blocking activity: exhibited

## COc1ccccc1OCCNC[C@H](O)COc1cccc2[nH]c3ccccc3c12 (single isomer, unassigned) [S(−) enantiomer]
β-adrenoreceptor
  nonselective β-adrenoreceptor blocking activity: exhibited
α-adrenergic
  α-adrenergic blocking activity: exhibited
